Measured values as given in patent EP3811940B1, “SUBSTITUTED 4,5'-BITHIAZOLES AS INHIBITORS OF THE HUMAN DNA TOPOISOMERASE II” (Kemijski Institut, priority 2019, dated 2021).
Read-outs that look alike come from different tables or passages of the source.

Tests used:
human topo IIα = target: T1, human topo IIα (Homo sapiens, UniProt P11388); assay: human topo IIα cleavage assay (linear DNA); type: biochemical
T1 construct: purchased Inspiralis (Norwich, UK)
Description: To determine if compounds act as topo II poisons, cleavage assay was performed for compounds 1 and 9.
Selected compounds were tested at four concentrations: 3.9, 31.5, 125 and 500 µM. The reaction was then incubated for additional 30 minutes with 0.2 % SDS and 0.5 µg/µL proteinase K. Subsequently the reaction was stopped by adding 30 µL of chloroform/iso-amyl alcohol ([…]) and 30 µL of Stop Dye (40 % sucrose (w/v), 100 mM Tris.HCl (pH 7.5), 10 mM EDTA, 0.5 µg/mL bromophenol blue), before sample being loaded on the 1 % TAE gel run at 80 V for 2 hours.
Bands were visualized by the ethidium bromide staining for 15 minutes and destaining for subsequent 10 minutes. Gels were scanned using the documentation equipment (GeneGenius, Syngene, Cambridge, UK) and cleavage levels were calculated from the band data obtained by the gel scanning software (GeneTools, Syngene, Cambridge,UK). The human topo IIα cleavage assay was performed in collaboration with Inspiralis (Norwich, UK).

MCF-7 cells = assay: MTS cytotoxicity assay, MCF-7; type: cell-based, human; settings: Homo sapiens, interval in brackets
Description: (§1) We determined the cytotoxicity of the tested compounds on human breast cancer MCF-7 and human hepatocellular carcinoma HepG2 cancer cell lines using MTS assay. Both selected human cancer cell lines are representative and well-established systems for cell-based evaluation of potential anticancer compounds. Etoposide was again used as a positive control (PC).
(§2) In the first step we performed the initial screening of compounds 1-14 at one concentration. […] Exponentially growing cells were exposed to all compounds for 24 h and the results are represented in Figure 3A.
(§3) In vitro cytotoxicity of investigated compounds was evaluated in two human cancer cell lines: the […] cell lines. The HepG2 cells (ATCC) were cultivated at 37 °C and 5 % CO2 in MEME medium (M2414, Sigma) supplemented with 10 % FBS, 2 mM L-Glutamine, 1 % NEAA, 2.2 g/L NaHCO3, 1 mM sodium pyruvate and 100 IU/mL penicillin/ streptomycin and MCF-7 (ATCC) were cultivated in Eagle's MEM medium (M5650, Sigma), supplemented with 10 % fetal bovine serum, 2 mM glutamine, and 100 IU/mL penicillin/streptomycin. After the exposure to the tested compounds the viability of HepG2 and MCF-7 cells was determined by MTS tetrazolium reduction assay. The cells were seeded onto 96-well microplates (Nunc, TermoFisher Scientific, Waltham, MA, USA) at densities of 8000 cells per well (HepG2) and 7000 cells per well (MCF-7) in […] growth medium and incubated overnight to attach. The next day, the growth medium was replaced by the fresh complete growth medium containing appropriate concentrations of the compounds. […] Finally, the absorbance was measured at wavelength of 490 nm using a Microplate Reader (Synergy MX, BioTek, Winooski, VT, USA). […] Assay was performed at 5 concentrations of each compound; 2, 25, 50, 100 and 200 µM for compounds 1, 7 and 14 and 1, 12.5, 25, 50, 100 µM for compounds 9 and 10. […] Cell viability was determined by comparing the OD (optical density) of the wells containing the cells treated with investigated compounds with those of solvent control cells and presented as % of cell viability ± SD. Experiments were performed three times independently each time in at least three replicates. EC50 values were calculated by non-linear regression analysis using GraphPad Prism 7.0 Software. Statistical significance between treated groups and the control was determined by One-way analysis of variance and Dunnett's Multiple Comparison Test.

HepG2 cells = assay: MTS cytotoxicity assay, HepG2; type: cell-based, human; settings: Homo sapiens, interval in brackets
Description: as §1, §2, §3

human topo IIβ = target: T2, human topo IIβ (Homo sapiens, UniProt Q02880); assay: kDNA decatenation assay catalysed by human topo IIβ; type: biochemical; settings: for % Decatenated Assay 1 / % Decatenated Assay 2: % of decatenated kDNA; for % Decatenated Average: average of two assays
T2 construct: purchased Inspiralis (Norwich, UK)
Description: One U of human topo II (α or β) was incubated with 200 ng kDNA in a 30 µL reaction at 37°C for 30 minutes under the following conditions: 50 mM Tris HCl (pH 7.5), 125 mM NaCl, 10 mM MgCl2, 5 mM DTT, 0.5 mM EDTA, 0.1 mg/ml bovine serum albumin (BSA) and 1 mM ATP. Compounds 1 and 9 were serially diluted in DMSO and added to the reaction mixture before the addition of the enzyme. Etoposide was used as a control compound. Each reaction was then stopped by the addition of 30 µL chloroform/iso-amyl alcohol ([…]) and 30 µL Stop Dye (40 % sucrose (w/v), 100 mM Tris.HCl (pH 7.5), 10 mM EDTA, 0.5 µg/mL bromophenol blue), before being loaded on a 1% TAE gel run at 85 V for 90 minutes. Assays were performed at 4 concentrations of ligand: 3.9, 31.5, 125 and 500 µM. The final DMSO concentration in all reactions was 1 % (v/v).
Bands were visualized by the ethidium bromide staining for 15 minutes and destaining for subsequent 10 minutes. Gels were scanned using the documentation equipment (GeneGenius, Syngene, Cambridge, UK) and inhibition levels were calculated from band data obtained with gel scanning software (GeneTools, Syngene, Cambridge,UK). Experiment was performed in duplicates for all compounds.

[1] = MCF7, read-out: EC50 [µM] MCF-7 (24h), 24h exposure
[2] = MCF7, 72h exposure, read-out: EC50 [µM] MCF-7 (72h)
[3] = HepG2, read-out: EC50 [µM] HepG2 (24h), 24h exposure
[4] = HepG2, 72h exposure, read-out: EC50 [µM] HepG2 (72h)

T1 sequence (P11388 whole entry): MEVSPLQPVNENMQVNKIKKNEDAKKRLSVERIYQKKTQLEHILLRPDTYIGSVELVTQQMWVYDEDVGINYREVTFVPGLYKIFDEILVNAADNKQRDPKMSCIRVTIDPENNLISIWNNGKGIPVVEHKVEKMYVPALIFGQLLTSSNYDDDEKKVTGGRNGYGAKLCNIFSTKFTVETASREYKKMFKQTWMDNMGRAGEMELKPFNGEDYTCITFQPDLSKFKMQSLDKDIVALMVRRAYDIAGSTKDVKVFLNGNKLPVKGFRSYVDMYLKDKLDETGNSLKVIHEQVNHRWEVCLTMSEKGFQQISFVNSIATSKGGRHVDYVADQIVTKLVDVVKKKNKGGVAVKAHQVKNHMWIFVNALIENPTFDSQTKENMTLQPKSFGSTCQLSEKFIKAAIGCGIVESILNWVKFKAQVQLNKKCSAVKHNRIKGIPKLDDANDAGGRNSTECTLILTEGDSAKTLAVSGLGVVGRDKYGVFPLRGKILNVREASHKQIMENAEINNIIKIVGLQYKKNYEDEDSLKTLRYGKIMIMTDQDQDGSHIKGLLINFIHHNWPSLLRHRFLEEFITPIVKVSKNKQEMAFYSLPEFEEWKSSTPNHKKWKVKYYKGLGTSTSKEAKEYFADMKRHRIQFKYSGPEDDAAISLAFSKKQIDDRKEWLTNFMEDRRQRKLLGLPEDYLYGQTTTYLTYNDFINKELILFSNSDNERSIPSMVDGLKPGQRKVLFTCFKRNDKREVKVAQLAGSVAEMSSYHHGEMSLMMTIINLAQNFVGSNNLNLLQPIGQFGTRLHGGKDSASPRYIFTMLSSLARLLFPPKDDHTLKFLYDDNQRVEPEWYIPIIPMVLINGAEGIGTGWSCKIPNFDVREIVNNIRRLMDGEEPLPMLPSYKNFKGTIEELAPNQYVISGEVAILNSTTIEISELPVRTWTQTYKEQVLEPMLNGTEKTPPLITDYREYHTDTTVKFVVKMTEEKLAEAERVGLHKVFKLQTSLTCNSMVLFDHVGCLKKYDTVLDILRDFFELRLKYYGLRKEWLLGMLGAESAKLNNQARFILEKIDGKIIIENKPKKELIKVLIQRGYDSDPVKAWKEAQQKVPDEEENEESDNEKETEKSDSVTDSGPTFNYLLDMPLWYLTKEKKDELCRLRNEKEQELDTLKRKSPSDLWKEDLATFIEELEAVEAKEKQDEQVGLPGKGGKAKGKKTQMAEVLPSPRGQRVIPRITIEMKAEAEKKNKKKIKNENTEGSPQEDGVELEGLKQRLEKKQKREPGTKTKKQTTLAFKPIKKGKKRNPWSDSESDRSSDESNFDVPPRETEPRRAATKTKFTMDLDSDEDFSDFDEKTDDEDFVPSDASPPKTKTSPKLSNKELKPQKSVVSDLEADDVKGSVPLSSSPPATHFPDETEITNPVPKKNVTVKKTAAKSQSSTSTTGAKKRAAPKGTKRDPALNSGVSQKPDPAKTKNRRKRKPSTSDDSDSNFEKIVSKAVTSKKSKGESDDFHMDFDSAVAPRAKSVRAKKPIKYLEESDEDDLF
T2 sequence (Q02880 whole entry): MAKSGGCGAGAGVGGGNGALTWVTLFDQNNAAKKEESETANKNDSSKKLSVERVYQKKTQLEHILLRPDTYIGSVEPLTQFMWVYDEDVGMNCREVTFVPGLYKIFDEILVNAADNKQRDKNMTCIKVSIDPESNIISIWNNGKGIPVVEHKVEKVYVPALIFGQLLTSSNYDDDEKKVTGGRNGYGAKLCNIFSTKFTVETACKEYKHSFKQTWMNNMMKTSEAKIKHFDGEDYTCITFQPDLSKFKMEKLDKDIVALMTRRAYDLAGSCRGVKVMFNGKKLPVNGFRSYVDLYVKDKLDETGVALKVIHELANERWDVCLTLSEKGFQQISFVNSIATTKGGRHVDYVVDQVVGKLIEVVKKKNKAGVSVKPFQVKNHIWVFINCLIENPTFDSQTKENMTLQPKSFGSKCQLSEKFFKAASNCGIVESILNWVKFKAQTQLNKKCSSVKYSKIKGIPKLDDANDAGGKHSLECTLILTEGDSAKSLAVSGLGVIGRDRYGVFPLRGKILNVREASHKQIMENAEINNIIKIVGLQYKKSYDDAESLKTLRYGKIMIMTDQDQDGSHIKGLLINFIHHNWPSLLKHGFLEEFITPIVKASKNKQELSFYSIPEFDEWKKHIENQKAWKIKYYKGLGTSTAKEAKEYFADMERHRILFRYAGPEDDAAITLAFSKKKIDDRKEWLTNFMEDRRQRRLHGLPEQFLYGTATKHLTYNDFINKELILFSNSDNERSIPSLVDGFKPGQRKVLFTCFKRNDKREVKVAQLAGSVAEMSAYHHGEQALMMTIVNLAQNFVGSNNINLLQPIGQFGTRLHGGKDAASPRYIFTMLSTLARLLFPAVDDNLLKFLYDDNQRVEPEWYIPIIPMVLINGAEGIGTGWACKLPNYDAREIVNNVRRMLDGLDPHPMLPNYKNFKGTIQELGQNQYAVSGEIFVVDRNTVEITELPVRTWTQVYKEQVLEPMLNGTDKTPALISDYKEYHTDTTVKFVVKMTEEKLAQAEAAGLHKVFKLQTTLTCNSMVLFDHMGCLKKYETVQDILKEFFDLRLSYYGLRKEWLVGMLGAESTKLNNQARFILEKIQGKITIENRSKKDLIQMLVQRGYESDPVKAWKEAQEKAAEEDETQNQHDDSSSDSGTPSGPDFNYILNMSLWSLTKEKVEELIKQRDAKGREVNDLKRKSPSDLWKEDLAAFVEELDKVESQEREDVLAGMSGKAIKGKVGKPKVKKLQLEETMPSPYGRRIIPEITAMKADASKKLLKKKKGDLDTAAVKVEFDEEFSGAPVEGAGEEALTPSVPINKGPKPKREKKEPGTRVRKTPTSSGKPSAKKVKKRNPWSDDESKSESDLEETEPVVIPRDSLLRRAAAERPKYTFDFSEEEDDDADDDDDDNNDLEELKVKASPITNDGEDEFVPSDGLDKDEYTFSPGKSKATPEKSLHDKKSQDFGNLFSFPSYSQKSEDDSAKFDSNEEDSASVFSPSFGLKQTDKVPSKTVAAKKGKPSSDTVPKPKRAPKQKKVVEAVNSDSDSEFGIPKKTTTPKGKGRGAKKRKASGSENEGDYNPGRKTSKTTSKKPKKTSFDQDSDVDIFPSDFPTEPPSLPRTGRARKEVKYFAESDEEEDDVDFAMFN

Row | SMILES | % Linear Average (human topo IIα; 3.9 µM) | % Linear (human topo IIα; 3.9 µM, % Linear) | % Linear (human topo IIα; 3.9 µM, first % Linear column) | % Linear Average (human topo IIα; 31.5 µM) | % Linear (human topo IIα; 31.5 µM, % Linear) | % Linear (human topo IIα; 31.5 µM, first % Linear column) | % Linear Average (human topo IIα; 125 µM) | % Linear (human topo IIα; 125 µM, % Linear) | % Linear (human topo IIα; 125 µM, first % Linear column) | % Linear Average (human topo IIα; 500 µM) | % Linear (human topo IIα; 500 µM, % Linear) | % Linear (human topo IIα; 500 µM, first % Linear column) | EC50 (MCF-7 cells; [1]) | EC50 (MCF-7 cells; [2]) | EC50 (HepG2 cells; [3]) | EC50 (HepG2 cells; [4]) | % Decatenated Assay 1 (human topo IIβ; 3.9 µM) | % Decatenated Assay 2 (human topo IIβ; 3.9 µM) | % Decatenated Assay 1 (human topo IIβ; 31.5 µM) | % Decatenated Assay 2 (human topo IIβ; 31.5 µM) | also measured
1 | Cc1nc(N)sc1-c1csc(Nc2ccc(C(F)(F)F)cc2)n1 [Compound 1, 4'-methyl-N2-(4-(trifluoromethyl)phenyl)-[4,5'-bithiazole]-2,2'-diamine] | 6.81% | 5.57% | 8.05% | 7.04% | 7.77% | 6.32% | 2.94% | 2.85% | 3.02% | 2.72% | 2.98% | 2.45% | 65 µM | 59.5 µM | 72.8 µM | 46.8 µM | 87.3% | 95.5% | 78.6% | 79.7% | % Decatenated Average (human topo IIβ; 3.9 µM): 91.3%; inhibition at 31.5 µM (human topo IIβ; 31.5 µM): 20.8%; % Decatenated Average (human topo IIβ; 31.5 µM): 79.2%; % of inhibition of decatenation (human topo IIβ; 125 µM): fully inhibited; % Decatenated Assay 1 (human topo IIβ; 125 µM): 0%; % Decatenated Assay 2 (human topo IIβ; 125 µM): 0%; % Decatenated Average (human topo IIβ; 125 µM): 0%; % of inhibition of decatenation (human topo IIβ; 500 µM): fully inhibited; % Decatenated Assay 1 (human topo IIβ; 500 µM): 0%; % Decatenated Assay 2 (human topo IIβ; 500 µM): 0%; % Decatenated Average (human topo IIβ; 500 µM): 0%
2 | CC(=O)Nc1ccc(Nc2nc(-c3sc(NC(C)=O)nc3C)cs2)cc1 [Compound 9, N-(4-((2'-acetamido-4'-methyl-[4,5'-bithiazol]-2-yl)amino)phenyl)acetamide] | 6.26% | 7.03% | 5.49% | 7.26% | 6.75% | 7.77% | 4.72% | 4.60% | 4.84% | 2.60% | 2.25% | 2.95% | 15 µM | 13.8 µM | 73.5 µM | 23.5 µM | 87.0% | 75.6% | 80.1% | 73.3% | % Decatenated Average (human topo IIβ; 3.9 µM): 81.3%; % Decatenated Average (human topo IIβ; 31.5 µM): 76.7%; inhibition at 125 µM (human topo IIβ; 125 µM): 73.9%; % Decatenated Assay 1 (human topo IIβ; 125 µM): 30.5%; % Decatenated Assay 2 (human topo IIβ; 125 µM): 21.7%; % Decatenated Average (human topo IIβ; 125 µM): 26.1%; inhibition at 500 µM (human topo IIβ; 500 µM): 88.6%; % Decatenated Assay 1 (human topo IIβ; 500 µM): 17.5%; % Decatenated Assay 2 (human topo IIβ; 500 µM): 5.3%; % Decatenated Average (human topo IIβ; 500 µM): 11.4%
3 | COc1cc([C@@H]2c3cc4c(cc3[C@@H](O[C@@H]3O[C@@H]5CO[C@@H](C)O[C@H]5[C@H](O)[C@H]3O)[C@H]3COC(=O)[C@H]23)OCO4)cc(OC)c1O [Etoposide, etoposide, reference compound] | 17.32% | 11.88% | 22.76% | 34.63% | 36.26% | 33.00% | 41.13% | 36.91% | 45.35% | 45.71% | 48.40% | 43.03% | 320 µM | 12.6 µM | 196 µM | 25.8 µM | 100.0% | 100.0% | 94.0% | 92.8% | amount of linear DNA (poison activity) (human topo IIα; titration 3.9, 31.5, 125 and 500 µM, result in words): increased amount of linear DNA; % Decatenated Average (human topo IIβ; 31.5 µM): 93.4%; % Decatenated Assay 1 (human topo IIβ; 125 µM): 24.6%; % Decatenated Assay 2 (human topo IIβ; 125 µM): 23.1%; % Decatenated Average (human topo IIβ; 125 µM): 23.9%; % Decatenated Assay 1 (human topo IIβ; 500 µM): 150%; % Decatenated Assay 2 (human topo IIβ; 500 µM): 14.4%; % Decatenated Average (human topo IIβ; 500 µM): 14.7%
